Data as given in patent US20240254138A1, “TRICYCLIC PYRIMIDINES AS CYCLIN-DEPENDENT KINASE 7 (CDK7) INHIBITORS” (JANSSEN PHARMACEUTICA NV, priority 2021, published 2024).
Where two headings read alike, the source gives them in different places.

What was measured:
[1] = tested on: RNA Polymerase II Serine 5 phosphorylation in A549 cells overexpressing CDK7-mutant (C312S); test: Imaging-based cellular RNA PolII Ser5 phosphorylation assay in A549 cells overexpressing CDK7-mutant (C312S); type: cell-based, human; details: RNA PolII Ser5 phosphorylation, averaged over all measurements; for CDK7_A549 mutant hCDK7(pIC50): A549 cells overexpressing CDK7-mutant (C312S); for IC50: Homo sapiens, A549, A549 cells overexpressing CDK7-mutant (C312S), read-out: CDK7_A549 mutant hCDK7(pIC50) (converted)
Outline: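 Readout was automated imaging of anti-phospho-Ser5 Rpb1 CTD immunofluorescence, with IC50 fitted to % control versus concentration. Cells were A549 stably overexpressing non-covalently targetable CDK7 C312S alongside wild-type, exposed to compound 3 h at 37 °C. DMSO and 10 μM reference compound served as controls.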

[2] = tested on: RNA Polymerase II Serine 5 phosphorylation (Rpb1 CTD, downstream substrate of CDK7) in A549 cells; test: Imaging-based cellular RNA PolII Ser5 phosphorylation assay in A549 cells; type: cell-based, human; details: wild-type CDK7, RNA PolII Ser5 phosphorylation, averaged over all measurements; for CDK7_A549 Wild-type CDK7 (pIC50): A549 cells; for IC50: Homo sapiens, A549, A549 cells, read-out: CDK7_A549 Wild-type CDK7 (pIC50) (converted)
Outline: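 IC50 derived by fitting % control (DMSO high, 10 μM reference low) against concentration, with Hill slope. Readout: high-content imaging of phospho-Ser5 Rpb1 CTD antibody staining in fixed, permeabilized A549 cells exposed to compound 3 h after 20 h culture in 1% FBS DMEM.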

[3] = target: CDK7/cyclinH/MAT1 trimeric complex (Homo sapiens, UniProt P50613); test: In vitro CDK7 assay, potency of irreversible covalent inhibitors (kinact/KI), coupled PK/LDH ADP readout at 340 nm; details: for Ki: CDK7 (20 nM enz.) (KI, μM); for kinact: read-out: CDK7 (20 nM enz.) (kinact, s^−1), 20 nM enzyme
Sequence of CDK7/cyclinH/MAT1 trimeric complex (P50613 whole entry): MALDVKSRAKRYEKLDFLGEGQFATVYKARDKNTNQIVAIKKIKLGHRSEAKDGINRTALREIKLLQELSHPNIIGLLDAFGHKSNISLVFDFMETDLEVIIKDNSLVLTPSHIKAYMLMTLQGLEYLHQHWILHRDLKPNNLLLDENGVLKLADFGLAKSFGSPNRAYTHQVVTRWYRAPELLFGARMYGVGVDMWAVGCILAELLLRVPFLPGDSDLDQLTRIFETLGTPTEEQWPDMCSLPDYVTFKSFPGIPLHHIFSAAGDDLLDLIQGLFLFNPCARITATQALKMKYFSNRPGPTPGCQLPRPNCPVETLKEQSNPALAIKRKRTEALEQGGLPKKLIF
Sequence of CDK7/cyclinH/MAT1 trimeric complex (P51946 whole entry partner): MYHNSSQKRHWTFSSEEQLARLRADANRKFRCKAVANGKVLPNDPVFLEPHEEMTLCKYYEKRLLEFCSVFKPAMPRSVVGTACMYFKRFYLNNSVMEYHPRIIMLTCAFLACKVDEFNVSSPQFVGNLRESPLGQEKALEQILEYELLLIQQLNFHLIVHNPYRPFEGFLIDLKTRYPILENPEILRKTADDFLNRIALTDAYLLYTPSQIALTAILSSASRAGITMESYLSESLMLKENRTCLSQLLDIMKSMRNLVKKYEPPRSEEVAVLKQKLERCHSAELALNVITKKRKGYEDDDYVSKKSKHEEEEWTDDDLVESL
Sequence of CDK7/cyclinH/MAT1 trimeric complex (P51948 whole entry partner): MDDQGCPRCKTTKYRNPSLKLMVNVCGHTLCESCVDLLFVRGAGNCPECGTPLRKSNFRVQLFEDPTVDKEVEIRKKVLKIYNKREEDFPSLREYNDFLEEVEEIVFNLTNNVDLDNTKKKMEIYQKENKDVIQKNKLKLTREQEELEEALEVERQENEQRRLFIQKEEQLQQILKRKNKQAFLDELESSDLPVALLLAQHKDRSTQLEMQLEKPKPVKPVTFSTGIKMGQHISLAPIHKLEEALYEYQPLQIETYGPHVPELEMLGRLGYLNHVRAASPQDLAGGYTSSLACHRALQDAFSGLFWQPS

[4] = read-out: CDK7 (20 nM enz.) (kinact/KI, M^−1*s^−1), 20 nM enzyme
[5] = read-out: CDK7 (20 nM enz.) (kobs/[I], M^−1*s^−1), 20 nM enzyme

Row | Structure (SMILES) | CDK7_A549 mutant hCDK7(pIC50) [1] | CDK7_A549 Wild-type CDK7 (pIC50) [2] | CDK7 (20 nM enz.) (kobs/[I], M^−1*s^−1) ([3]; 20 nM enzyme) | IC50 [1] | IC50 [2] | Ki ([3]; 20 nM enzyme) | kinact [3] | kinact/KI [3, 4] | kinact/KI [3, 5] | CDK7 (20 nM enz.) (kinact/KI, M^−1*s^−1) ([3]; 20 nM enzyme) | CDK7 (20 nM enz.) (kinact, s^−1) ([3]; 20 nM enzyme)
1 | C=CC(=O)N1CC[C@H](N2CC(c3cc4c(c(C(F)(F)F)n3)OCc3c(N5CCOCC5)ccnc3N4)C2)C1 (single isomer, unassigned) [Compound 404] | 5.09 | 7.13 | 1280.59 M⁻¹ s⁻¹ |  |  |  |  |  |  |  | 
2 | C=CC(=O)N1CCC(N2CCC(c3cc4c(c(C)n3)O[C@H](C)c3c(N5CCOCC5)ccnc3N4)CC2)CC1 (single isomer, unassigned) [Compound 406] |  |  |  | 1820 nM | ~9.77 nM | 0.495 µM | 0.000181 s⁻¹ | 366 M⁻¹ s⁻¹ |  |  | 
3 | C=CC(=O)N1CCC(N2CCC(c3cc4c(c(C)n3)O[C@@H](C)c3c(N5CCOCC5)ccnc3N4)CC2)CC1 (single isomer, unassigned) [Compound 411] |  |  |  | > 10000 nM | 288 nM | 3.4 µM | 0.000106 s⁻¹ | 31.3 M⁻¹ s⁻¹ |  |  | 
4 | C=CC(=O)N1CC[C@@H](N2CC(c3cc4c(c(C)n3)O[C@H](C)c3c(C5CCOCC5)ccnc3N4)C2)C1 (single isomer, unassigned) [Compound 413] |  |  |  | > 10000 nM | 75.9 nM | 0.0374 µM | 4.94e-05 s⁻¹ | 1320 M⁻¹ s⁻¹ |  |  | 
5 | C=CC(=O)N1CC(N2CCC(c3cc4c(c(C)n3)O[C@@H](C)c3c(C5CCOCC5)ccnc3N4)CC2)C1 (single isomer, unassigned) [Compound 415] |  |  |  | > 10000 nM | 1820 nM | 2.22 µM | 7.43e-05 s⁻¹ | 33.5 M⁻¹ s⁻¹ |  |  | 
6 | CC#CC(=O)N1CCC(N2CCC(c3cc4c(c(C)n3)O[C@H](C)c3c(N5CCOCC5)ccnc3N4)CC2)CC1 (single isomer, unassigned) [Compound 416] |  |  |  | 1860 nM | < 9.77 nM |  |  |  | 1750 M⁻¹ s⁻¹ |  | 
7 | CC#CC(=O)N1CC[C@H](N2CC(c3cc4c(c(C5CC5)n3)OCc3c(N5CCOCC5)ccnc3N4)C2)C1 (single isomer, unassigned) [Compound 418] |  |  |  | 8710 nM | 257 nM | 0.0692 µM | 2.87e-05 s⁻¹ | 415 M⁻¹ s⁻¹ |  |  | 
8 | C=CC(=O)N1CC[C@H](N2CC(c3cc4c(c(C5CC5)n3)OCc3c(N5CCOCC5)ccnc3N4)C2)C1 (single isomer, unassigned) [Compound 421] | 5 | 7.02 |  |  |  | 0.064 µM | 7.59e-05 s⁻¹ |  |  | 1185.66 M⁻¹ s⁻¹ | 
9 | C=CC(=O)N1CC[C@H](N2CC(c3cc4c(c(C)n3)O[C@H](C)c3c(C5CCOCC5)ccnc3N4)C2)C1 (single isomer, unassigned) [Compound 422] |  |  |  | > 10000 nM | 115 nM | 0.0415 µM | 4.6e-05 s⁻¹ | 1110 M⁻¹ s⁻¹ |  |  | 
10 | CC#CC(=O)N1CC[C@@H](N2CC(c3cc4c(c(C5CC5)n3)OCc3c(N5CCOCC5)ccnc3N4)C2)C1 (single isomer, unassigned) [Compound 425] |  |  |  | > 10000 nM | 200 nM | 0.0971 µM | 2.48e-05 s⁻¹ | 255 M⁻¹ s⁻¹ |  |  | 
11 | CC#CC(=O)N1CCC(N2CCC(c3cc4c(c(C)n3)O[C@@H](C)c3c(N5CCOCC5)ccnc3N4)CC2)CC1 (single isomer, unassigned) [Compound 426] |  |  |  | > 10000 nM | 63.1 nM | 0.642 µM | 4.43e-05 s⁻¹ | 69 M⁻¹ s⁻¹ |  |  | 
12 | C=CC(=O)N1CC[C@@H](N2CC(c3cc4c(c(C5CC5)n3)OCc3c(N5CCOCC5)ccnc3N4)C2)C1 (single isomer, unassigned) [Compound 427] | <5 | 6.99 |  |  |  | 0.0447 µM |  |  |  | 1751.84 M⁻¹ s⁻¹ | 7.839e-05 s⁻¹
13 | CC#CC(=O)N1CCC(N2CC[C@@H](c3cc4c(c(C)n3)OCc3c(N5CCOCC5)ccnc3N4)C2)CC1 (single isomer, unassigned) [Compound 433] |  |  |  | 5370 nM | 170 nM | 0.185 µM | 1.89e-05 s⁻¹ | 102 M⁻¹ s⁻¹ |  |  | 
14 | CC#CC(=O)N1CC(n2cc(-c3cc4c(c(C)n3)O[C@@H](C)c3c(N5CCOCC5)ccnc3N4)cn2)C1 (single isomer, unassigned) [Compound 437] |  |  |  | > 10000 nM | 170 nM | 0.0822 µM | 2.31e-05 s⁻¹ | 282 M⁻¹ s⁻¹ |  |  | 
15 | CC#CC(=O)N1CC(N2CC(c3cc4c(c(C)n3)O[C@H](C)c3c(N5CCOCC5)ccnc3N4)C2)C1 (single isomer, unassigned) [Compound 440] | <5 | 6.79 |  |  |  | 0.205 µM |  |  |  | 246.333 M⁻¹ s⁻¹ | 0.000050424 s⁻¹
16 | CC#CC(=O)N1CC(N2CCC(c3cc(C#N)c4c(c3)Nc3nccc(N5CCOCC5)c3[C@H](C)O4)CC2)C1 (single isomer, unassigned) [Compound 442] |  |  |  | > 10000 nM | 562 nM | 0.772 µM | 3.46e-05 s⁻¹ | 44.8 M⁻¹ s⁻¹ |  |  | 
17 | CC#CC(=O)N1CC(N2CCC(c3cc(C#N)c4c(c3)Nc3nccc(N5CCOCC5)c3C(C)O4)CC2)C1 (single isomer, unassigned) [Compound 443] |  |  |  | 4270 nM | 20.4 nM |  |  |  | 1430 M⁻¹ s⁻¹ |  | 
18 | C=CC(=O)N1CC[C@@H](N2CC(c3cc4c(c(C5CC5)n3)OCc3c(C5CCOCC5)ccnc3N4)C2)C1 (single isomer, unassigned) [Compound 445] |  |  |  | 8510 nM | 123 nM | 0.0844 µM | 6.94e-05 s⁻¹ | 823 M⁻¹ s⁻¹ |  |  | 
19 | C=CC(=O)N1CC[C@H](N2CC(c3cc4c(c(C5CC5)n3)OCc3c(N5CCOCC5)ccnc3N4)C2)C1 (single isomer, unassigned) [Compound 447] | ~5 | 6.77 |  |  |  | 0.143 µM |  |  |  | 551.654 M⁻¹ s⁻¹ | 7.882e-05 s⁻¹
20 | CC#CC(=O)N1CC(n2cc(-c3cc(C#N)c4c(c3)Nc3nccc(N5CCOCC5)c3[C@H](C)O4)cn2)C1 (single isomer, unassigned) [Compound 449] |  |  |  | 2340 nM | 33.1 nM |  |  |  | 328 M⁻¹ s⁻¹ |  | 
21 | C=CC(=O)N1CC(N2CC[C@H](c3cc4c(c(C)n3)OCc3c(N5CCOCC5)ccnc3N4)N(C)CC2)C1 (single isomer, unassigned) [Compound 452] |  |  |  | 6920 nM | 64.6 nM | 0.0493 µM | 4.92e-05 s⁻¹ | 997 M⁻¹ s⁻¹ |  |  | 
22 | C=CC(=O)N1CC(N2CC[C@@H](c3cc4c(c(C)n3)OCc3c(N5CCOCC5)ccnc3N4)N(C)CC2)C1 (single isomer, unassigned) [Compound 454] |  |  |  | > 10000 nM | 257 nM | 0.245 µM | 5.68e-05 s⁻¹ | 232 M⁻¹ s⁻¹ |  |  | 
23 | C=CC(=O)N1CC[C@H](N2CC(c3cc4c(c(C)n3)O[C@H](C)c3c(N5CCOCC5)ccnc3N4)C2)C1 (single isomer, unassigned) [Compound 455] |  |  |  | > 10000 nM | 91.2 nM |  |  | 179 M⁻¹ s⁻¹ |  |  | 
24 | C=CC(=O)N1CC[C@@H](N2CC(c3cc4c(c(C)n3)O[C@@H](C)c3c(N5CCOCC5)ccnc3N4)C2)C1 (single isomer, unassigned) [Compound 456] |  |  |  | > 10000 nM | 2880 nM | 24.6 µM | 0.000114 s⁻¹ | 4.65 M⁻¹ s⁻¹ |  |  | 
